According to ChEMBL document CHEMBL5036306 (J Med Chem, 2021):
pEC50, pIC50: −log10 of the molar value. Activity calls are given as the source filed them. The calls are words filed in the database; no cut-off is given here.

How the values were obtained:
[1] = Antioxidant activity assessed as DPPH radical scavenging activity incubated for 30 mins under dark condition by microplate reader based assay; format: functional
[2] = Antioxidant activity of compound assessed as trolox equivalent of AAPH radical scavenging activity at 2 to 4 uM preincubated for 15 mins followed by AAPH addition and measured every 2 mins for 90 mins by ORAC-fluorescein assay; format: functional; conditions: dose 2-4 µM, time 105.0 min
[3] = target: T1, Histone deacetylase 3 (Homo sapiens, UniProt O15379); experiment: Inhibition of recombinant HDAC3 (unknown origin) using Boc-Lys(acetyl)-AMC as substrate preincubated for 1 hr followed by substrate addition and measured after 2 hrs by fluorescence based assay
[4] = target: T2, Protein deacetylase HDAC6 (Homo sapiens, UniProt Q9UBN7); experiment: Inhibition of recombinant HDAC6 (unknown origin) using Boc-Lys(acetyl)-AMC as substrate preincubated for 1 hr followed by substrate addition and measured after 2 hrs by fluorescence based assay
T2 sequence (Q9UBN7 whole entry): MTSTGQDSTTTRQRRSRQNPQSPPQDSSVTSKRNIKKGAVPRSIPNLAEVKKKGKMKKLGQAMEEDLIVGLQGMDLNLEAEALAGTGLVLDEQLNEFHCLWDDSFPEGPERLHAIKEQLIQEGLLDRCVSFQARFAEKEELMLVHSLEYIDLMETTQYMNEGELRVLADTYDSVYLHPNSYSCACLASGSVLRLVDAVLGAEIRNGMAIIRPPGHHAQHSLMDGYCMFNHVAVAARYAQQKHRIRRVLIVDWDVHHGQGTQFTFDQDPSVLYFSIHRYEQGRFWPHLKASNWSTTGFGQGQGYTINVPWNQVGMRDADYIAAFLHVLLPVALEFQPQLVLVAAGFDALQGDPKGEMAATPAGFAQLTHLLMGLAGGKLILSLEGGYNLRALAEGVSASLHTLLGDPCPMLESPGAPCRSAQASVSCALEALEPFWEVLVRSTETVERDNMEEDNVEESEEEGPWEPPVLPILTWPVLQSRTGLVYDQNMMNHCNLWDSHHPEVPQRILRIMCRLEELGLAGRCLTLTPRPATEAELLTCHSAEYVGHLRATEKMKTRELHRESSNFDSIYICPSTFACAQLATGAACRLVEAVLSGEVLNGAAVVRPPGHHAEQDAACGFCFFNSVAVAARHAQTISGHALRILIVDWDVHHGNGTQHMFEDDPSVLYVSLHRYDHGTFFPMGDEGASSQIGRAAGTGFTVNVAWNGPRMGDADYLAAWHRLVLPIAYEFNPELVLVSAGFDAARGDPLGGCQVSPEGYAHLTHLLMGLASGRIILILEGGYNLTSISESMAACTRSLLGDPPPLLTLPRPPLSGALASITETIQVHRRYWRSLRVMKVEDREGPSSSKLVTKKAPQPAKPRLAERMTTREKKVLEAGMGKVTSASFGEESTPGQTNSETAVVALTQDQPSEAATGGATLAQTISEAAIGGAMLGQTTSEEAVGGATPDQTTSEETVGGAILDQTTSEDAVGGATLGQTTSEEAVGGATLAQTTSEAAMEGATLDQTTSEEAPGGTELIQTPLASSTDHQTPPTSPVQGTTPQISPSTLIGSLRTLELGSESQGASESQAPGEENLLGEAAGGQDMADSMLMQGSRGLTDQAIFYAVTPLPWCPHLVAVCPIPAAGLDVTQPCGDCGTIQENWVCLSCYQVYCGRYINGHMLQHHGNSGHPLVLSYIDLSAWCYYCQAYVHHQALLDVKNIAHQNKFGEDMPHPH

[5] = species on record: Homo sapiens; experiment: Selectivity ratio of IC50 for recombinant HDAC3 (unknown origin) to IC50 for recombinant HDAC6 (unknown origin)
[6] = system: Mus musculus; experiment: Anti-alzheimer activity against amyloid beta (25 to 35) induced working memory deficit mouse assessed as increase in spontaneous alternation performance by measuring total number of arm entries at 0.16 mg/kg, ip administered for 7 days and measured on day 8 by Y-maze test; format: functional, organism-based; conditions: time 8.0 day
[7] = system: Mus musculus; experiment: Anti-alzheimer activity against amyloid beta (25 to 35) induced working memory deficit mouse assessed as step-through latency time to enter dark compartment at 1 mg/kg, ip administered for 7 days and measured on day 9 days by passive avoidance test; format: functional, organism-based; conditions: time 9.0 day
[8] = Neurotoxicity in mouse HT-22 cells assessed as cell survival at 10 uM incubated for 48 hrs by MTT assay; format: cell-based; conditions: for viability at 48 h, 10 µM: HT-22 cells, read-out: Activity
[9] = Metal chelating activity assessed as compound-Cu2+ complex formation at 10 to 200 uM incubated for 2 mins followed by pyrocatechol violet addition and further incubated for 10 mins by microplate reader based assay; conditions: dose 10-200 µM, time 12.0 min
[10] = Metal chelating activity compound-Zn2+ complex formation at 10 to 200 uM preincubated for 2 mins followed by di-thizone addition by microplate reader based assay; conditions: dose 10-200 µM
[11] = Metal chelating activity assessed as Fe2+ -ferrozoine complex formation at 10 to 200 uM preincubated for 2 mins followed by ferrozine addition and further incubated for 10 mins by microplate reader based assay; conditions: dose 10-200 µM, time 12.0 min
[12] = Toxicity in mouse model of Alzheimer's disease assessed as drug tolerability at 0.3 to 3 mg/kg, ip measured after 7 days; format: organism-based; conditions: in vivo, 168 h, dose 0.3-3 mg/kg, time 7 day
[13] = system: Mus musculus; experiment: Anti-alzheimer activity against amyloid beta (25 to 35) induced working memory deficit mouse assessed as increase in spontaneous alternation performance by measuring total number of arm entries at 0.3 mg/kg, ip administered for 7 days and measured on day 8 in presence of melatonin and ferulic acid by Y-maze test; format: functional, organism-based; conditions: time 8.0 day
[14] = system: Mus musculus; experiment: Anti-alzheimer activity against amyloid beta (25 to 35) induced working memory deficit mouse assessed as step-through latency time to enter dark compartment at 0.3 to 3 mg/kg, ip administered for 7 days and measured on day 9 days by passive avoidance test; format: functional, organism-based; conditions: dose 0.3-3 mg/kg, time 9.0 day
[15] = system: Mus musculus; experiment: Anti-alzheimer activity against amyloid beta (25 to 35) induced working memory deficit mouse assessed as step-through latency time to enter dark compartment at 1 mg/kg, ip administered for 7 days and measured on day 9 days in presence of melatonin and ferulic acid by passive avoidance test; format: functional, organism-based; conditions: time 7.0 day
[16] = system: Mus musculus; experiment: Cognitive enhancing effect in mouse model of Alzheimer's disease at 1 mg/kg; format: functional, organism-based
[17] = system: Mus musculus; experiment: Neuroprotection against mouse model of Alzheimer's disease at 1 mg/kg; format: functional, organism-based
[18] = system: Mus musculus; experiment: Anti-alzheimer activity against amyloid beta (25 to 35) induced working memory deficit in mouse assessed as increase in spontaneous alternation performance at 1 mg/kg, ip administered for 7 days and measured on day 8 by Y-maze test; format: functional, organism-based; conditions: time 7.0 day
[19] = target: T1, Histone deacetylase 3; experiment: Inhibition of recombinant HDAC3 (unknown origin) at 1 uM using Boc-Lys(Ac)-AMC as substrate preincubated for 1 hr followed by substrate addition and measured after 2 hrs by fluorescence based assay relative to control; conditions: time 3.0 hrs
[20] = target: T3, Protein deacetylase HDAC6 (Homo sapiens) (UniProt Q9UBN7); experiment: Inhibition of recombinant HDAC6 (unknown origin) at 1 uM using Boc-Lys(Ac)-AMC as substrate preincubated for 1 hr followed by substrate addition and measured after 2 hrs by fluorescence based assay; conditions: time 3.0 hrs
T3 sequence (whole entry): T2 sequence (Q9UBN7 whole entry)

[21] = system: HT-22; experiment: Neuroprotection against glutamate-induced oxytosis in mouse HT-22 cells assessed as cell viability at 50 uM; format: functional, cell-based
[22] = system: HT-22; experiment: Neuroprotection against iodoacetic acid-induced ATP depletion in mouse HT-22 cells assessed as cell viability at 50 uM; format: functional, cell-based

T1 sequence (O15379 whole entry): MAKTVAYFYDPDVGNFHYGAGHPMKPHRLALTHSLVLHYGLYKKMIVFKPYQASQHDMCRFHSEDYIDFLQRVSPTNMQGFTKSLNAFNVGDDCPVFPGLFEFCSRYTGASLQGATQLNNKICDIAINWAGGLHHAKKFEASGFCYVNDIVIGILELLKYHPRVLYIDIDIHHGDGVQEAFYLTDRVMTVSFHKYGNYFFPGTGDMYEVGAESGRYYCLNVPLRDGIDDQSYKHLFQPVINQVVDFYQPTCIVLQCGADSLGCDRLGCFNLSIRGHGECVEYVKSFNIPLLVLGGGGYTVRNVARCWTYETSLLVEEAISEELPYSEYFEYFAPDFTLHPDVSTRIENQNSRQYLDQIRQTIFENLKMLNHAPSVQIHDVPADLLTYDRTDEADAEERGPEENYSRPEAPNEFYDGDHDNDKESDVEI

SMILES	pEC50 [1]	ORAC antioxidant capacity (Trolox equivalents) [2]	pIC50 [3]	pIC50 [4]	Ratio IC50 [5]	also measured
COc1cc(/C=C/C(=O)O)ccc1O [FERULATE]	4.86	3.1				
COc1ccc2[nH]cc(CCN(CCCCCC(=O)NO)C(=O)/C=C/c3ccc(O)c(OC)c3)c2c1	5.05	2.8	6.09	6.45	2	
COc1ccc2[nH]cc(CCNC(C)=O)c2c1 [MELATONIN]	< 2.22	2				Activity [6]: inactive; Activity [7]: inactive
COc1ccc2[nH]cc(CCNC(=O)c3ccc(/C=C/C(=O)NO)cc3)c2c1	4.60	2	8.44	7.72	< 1	viability at 48 h, 10 µM [8]: 60%
O=C(CCCCCCNC(=O)c1cnc(N(c2ccccc2)c2ccccc2)nc1)NO [RICOLINOSTAT]	3.59	0.5				Activity [9]: Active; Activity [10]: Active; Activity [11]: Active; Activity ([8]; ht-22, 48 h, 10 µM): Toxic; Activity [12]: Non-Toxic; Activity [13]: inactive; Activity [14]: Active; Activity [15]: inactive; Activity [16]: Active; Activity [17]: Active; Activity [18]: Active
COc1ccc2[nH]cc(CCNCc3ccc(/C=C/C(=O)NO)cc3)c2c1	4.77	2.4	8.29	7.67	< 1	viability at 48 h, 10 µM [8]: 50%
COc1ccc2[nH]cc(CCNC(=O)CN(Cc3ccc(/C=C/C(=O)NO)cc3)C(=O)/C=C/c3ccc(O)c(OC)c3)c2c1	5.08	1.2	6.97	7.27	2	
COc1ccc2c(c1)c(CCNC(C)=O)cn2Cc1ccc(/C=C/C(=O)NO)cc1	4.50	1.4	6.74	7.16	3	
COc1ccc2[nH]cc(CCNC(=O)CCCCC(=O)NO)c2c1	3.53	3				inhibition [19]: 25%
COc1ccc2[nH]cc(CCNC(=O)CN(CCCCCC(=O)NO)C(=O)/C=C/c3ccc(O)c(OC)c3)c2c1	4.72	3.2	6.92	7.24	2	
COc1ccc2[nH]cc(CCNC(=O)CN(Cc3ccc(C(=O)NO)cc3)C(=O)/C=C/c3ccc(O)c(OC)c3)c2c1	4.82	1.6				inhibition [20]: 19%
COc1ccc2c(c1)c(CCNC(C)=O)cn2CCCCCC(=O)NO	3.58	1.6	6.31	7.28	9	
COc1ccc2[nH]cc(CCNCc3ccc(C(=O)NO)cc3)c2c1	4.18	3				inhibition [19]: 26%; inhibition [20]: 43%
COc1ccc2[nH]cc(CCN(Cc3ccc(/C=C/C(=O)NO)cc3)C(=O)/C=C/c3ccc(O)c(OC)c3)c2c1	5.07	1	6.79	7.59	6	Activity [21]: Active; Activity [22]: Active
COc1ccc2[nH]cc(CCNC(=O)c3ccc(C(=O)NO)cc3)c2c1	4.21	2.4				inhibition [19]: 87%; inhibition [20]: 88%
COc1ccc2[nH]cc(CCNC(=O)/C=C/c3ccc(C(=O)NO)cc3)c2c1	4.19	2	7.71	7.47	< 1	
